Assay results taken from paper PMC6332508, “A Promising PET Tracer for Imaging of α7 Nicotinic Acetylcholine Receptors in the Brain: Design, Synthesis, and in Vivo Evaluation of a Dibenzothiophene-Based Radioligand” (Molecules, 2015).
Where two headings read alike, the source gives them in different places.

Assays:
human α3β4 nAChR = target: T1, human α3β4 nAChR (Homo sapiens, UniProt P30926+P32297); assay: Radioligand displacement at human α3β4 nAChR, [3H]epibatidine, HEK293 cells; assay type: binding; settings: stably transfected HEK-293 cells, [3H]epibatidine; read-out: Affinity (Ki in nM) hα3β4
T1 construct: expressed in transfected cells; host or cells: HEK293
Procedure: (§1) The affinity of the test compounds for human α4β2 and α3β4 nAChR was determined as described above. In brief, HEK293 cells stably expressing human α4β2 or α3β4 nAChR [66] were cultured. […] Nonspecific binding was determined in the presence of 300 μM (−)-nicotine tartrate. Incubation of the samples, separation of free from receptor-bound radioligand, and data evaluation were performed as described above.

[1] = test system: monoamine transporter (VMAT); assay: Off-target radioligand binding assay, VMAT; settings: 1 μM; significant at ≥50% inhibition or stimulation
Procedure: (§2) The activity of compound 10a was evaluated by a contract research organization (Eurofins Panlabs, Inc.). The test concentration was 1 μM and radioligand binding assays for dopamine transporter (DAT), serotonin transporter (SERT), norepinephrine transporter (NET), monoamine transporter (VMAT), choline transporter, and α1 nAChR performed according to the manufacturer’s protocols.

human α4β2 nAChR = target: T2, human α4β2 nAChR (Homo sapiens, UniProt P17787+P43681); assay: Radioligand displacement at human α4β2 nAChR, [3H]epibatidine, HEK293 cells; assay type: binding; settings: stably transfected HEK-293 cells, [3H]epibatidine; read-out: Affinity (Ki in nM) hα4β2
T2 construct: expressed in transfected cells; host or cells: HEK293
Procedure: as §1

human 5-HT3 receptor = target: T3, human 5-HT3 receptor (Homo sapiens, UniProt P46098); assay: Radioligand binding at human 5-HT3 receptor, [3H]GR65630 (Eurofins Panlabs)
T3 construct: host or cells: HEK-293
T3 sequence (P46098 24-478): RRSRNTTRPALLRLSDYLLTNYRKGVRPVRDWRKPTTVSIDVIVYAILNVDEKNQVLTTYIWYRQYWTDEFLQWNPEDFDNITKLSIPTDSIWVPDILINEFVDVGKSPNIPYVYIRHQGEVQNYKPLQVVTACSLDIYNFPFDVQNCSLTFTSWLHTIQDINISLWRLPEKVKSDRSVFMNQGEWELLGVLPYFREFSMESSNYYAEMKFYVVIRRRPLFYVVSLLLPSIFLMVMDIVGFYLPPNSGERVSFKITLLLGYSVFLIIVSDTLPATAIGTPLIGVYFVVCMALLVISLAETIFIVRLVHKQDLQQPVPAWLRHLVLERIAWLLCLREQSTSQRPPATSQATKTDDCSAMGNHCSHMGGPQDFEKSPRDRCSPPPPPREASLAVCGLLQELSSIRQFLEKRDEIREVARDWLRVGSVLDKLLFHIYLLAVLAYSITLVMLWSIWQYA

α7 nAChR [2] = settings: [125I]α-bungarotoxin labelled rat cortical membranes; cited from earlier work
[3] = target: T4, dopamine transporter (DAT) (Homo sapiens, UniProt Q01959); assay: Off-target radioligand binding assay, DAT; settings: 1 μM; significant at ≥50% inhibition or stimulation
T4 construct: Eurofins Panlabs, Inc
Procedure: as §2

choline transporter = target: T5, choline transporter (Homo sapiens, UniProt Q9GZV3); assay: Off-target radioligand binding assay, choline transporter; settings: 1 μM; significant at ≥50% inhibition or stimulation
T5 construct: Eurofins Panlabs, Inc
T5 sequence (Q9GZV3 1-580): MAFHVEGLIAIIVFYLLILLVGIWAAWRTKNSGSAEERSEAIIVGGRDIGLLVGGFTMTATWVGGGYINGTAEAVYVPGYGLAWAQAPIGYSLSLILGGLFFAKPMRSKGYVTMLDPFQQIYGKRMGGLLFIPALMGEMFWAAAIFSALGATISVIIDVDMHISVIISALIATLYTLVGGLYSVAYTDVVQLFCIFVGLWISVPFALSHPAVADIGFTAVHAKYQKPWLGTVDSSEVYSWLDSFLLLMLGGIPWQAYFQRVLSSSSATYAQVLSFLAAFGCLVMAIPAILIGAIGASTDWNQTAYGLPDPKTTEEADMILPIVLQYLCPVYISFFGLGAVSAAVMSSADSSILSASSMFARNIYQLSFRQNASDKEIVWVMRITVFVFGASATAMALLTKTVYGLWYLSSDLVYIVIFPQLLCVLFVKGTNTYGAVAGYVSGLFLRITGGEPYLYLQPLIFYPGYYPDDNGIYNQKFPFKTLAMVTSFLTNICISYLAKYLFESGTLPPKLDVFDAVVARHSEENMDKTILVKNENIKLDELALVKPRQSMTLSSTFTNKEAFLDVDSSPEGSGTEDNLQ
Procedure: as §2

α1 nAChR = target: T6, α1 nAChR (Homo sapiens, UniProt P02708+P07510+Q07001); assay: Off-target radioligand binding assay, α1 nAChR; settings: 1 μM; significant at ≥50% inhibition or stimulation
T6 construct: Eurofins Panlabs, Inc
Procedure: as §2

human α7 nAChR = target: T7, human α7 nAChR (Homo sapiens, UniProt P36544); assay: Radioligand displacement at human α7 nAChR, [3H]methyllycaconitine, SH-SY5Y cells; assay type: binding
T7 construct: expressed in transfected cells; host or cells: SH-SY5Y

[4] = target: T8, norepinephrine transporter (NET) (Homo sapiens, UniProt P23975); assay: Off-target radioligand binding assay, NET; settings: 1 μM; significant at ≥50% inhibition or stimulation
T8 construct: Eurofins Panlabs, Inc
Procedure: as §2

α3β4 nAChR = target: α3β4 nAChR; design: method as in PMID 24050653; settings: rat receptor subtype; cited from earlier work
[5] = target: T9, serotonin transporter (SERT) (Homo sapiens, UniProt P31645); assay: Off-target radioligand binding assay, SERT; settings: 1 μM; significant at ≥50% inhibition or stimulation
T9 construct: Eurofins Panlabs, Inc
Procedure: as §2

rat α6β2* nAChR = rat α6β2* nAChR (Rattus norvegicus, UniProt P12390+P43143); assay: [3H]epibatidine binding to antibody-immobilized native rat α6β2* nAChR from striatum; settings: read-out: Affinity (Ki in nM) rα6β2*, immunoimmobilization with anti-rα6 antibody, [3H]epibatidine 0.1 nM
Procedure: The specificity of the anti-α6 antibody was tested as described. The receptors were prepared and immobilized as previously described by the subunit-specific antibody. […] Incubations were performed in a buffer containing 50 mM Tris-HCl, pH 7, 150 mM NaCl, 5 mM KCl, 1 mM MgCl2, 2.5 mM CaCl2, 2 mg∙mL^−1 BSA, and 0.05% Tween 20. Specific ligand binding was defined as total binding minus the binding in the presence of 100 nM (±)-epibatidine dihydrochloride hydrate.
The experimental data obtained from the binding experiments were analyzed by means of a non-linear least square procedure using the LIGAND program. The Ki values of the test compounds were also determined by means of the LIGAND program by simultaneously fitting the data obtained from three to five independent saturation and competition binding experiments.

[6] = Acute toxicity study in rats, single intravenous injection; assay type: in vivo, Wistar rats
Procedure: The acute toxicity of 10a was assessed when administered by a single intravenous injection to rats followed by an observation period of 2 or 15 day (Hameln rds, Modra, Slovak Republic). The study was performed with 4 test groups, including 1 control and 3 dose groups (6.2, 62 and 620 μg∙kg^−1), with 60 males and 60 females Wistar rats divided into two experiment cohorts: Day 2 (40 males and 40 females) and Day 15 (20 males and 20 females). The animals were weighed and allocated to the test groups based on their body weights. The animals were sacrificed in two time periods (day 2 and day 15 after test item administration) and then examined macroscopically and histopathologically. The following parameters were evaluated: mortality, clinical observation, body weights, food consumption, haematology (white blood cells, red blood cells, hemoglobin, hematocrit, mean corpuscular volume, mean corpuscular hemoglobin, platelets, lympohcytes, neutrophils, eosinophils, basophils, monocytes), clinical chemistry (alkaline phosphatase, aspartate aminotransferase, alanine aminotransferase, glucose, cholesterol, triacylglycerols, creatinine, urea, bilirubin, albumin, calcium, phosphorus, sodium, potassium chloride), pathology and histopathology.

α7 nAChR [7] = target: α7 nAChR; design: method as in PMID 22281189; settings: cited from earlier work

T7 sequence (P36544 23-502): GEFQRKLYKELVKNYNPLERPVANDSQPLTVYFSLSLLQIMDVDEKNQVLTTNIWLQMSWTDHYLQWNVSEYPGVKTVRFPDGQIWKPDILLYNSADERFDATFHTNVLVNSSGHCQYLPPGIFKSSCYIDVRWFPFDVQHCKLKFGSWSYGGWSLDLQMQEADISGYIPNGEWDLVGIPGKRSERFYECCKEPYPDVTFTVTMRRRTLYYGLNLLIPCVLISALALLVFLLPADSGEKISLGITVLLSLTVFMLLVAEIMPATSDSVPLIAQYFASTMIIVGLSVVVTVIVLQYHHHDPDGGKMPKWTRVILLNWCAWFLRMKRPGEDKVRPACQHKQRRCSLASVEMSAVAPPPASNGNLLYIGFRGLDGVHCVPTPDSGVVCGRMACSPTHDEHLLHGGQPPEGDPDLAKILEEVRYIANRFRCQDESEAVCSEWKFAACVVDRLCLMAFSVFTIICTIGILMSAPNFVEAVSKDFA
T9 sequence (P31645 whole entry, species assumed): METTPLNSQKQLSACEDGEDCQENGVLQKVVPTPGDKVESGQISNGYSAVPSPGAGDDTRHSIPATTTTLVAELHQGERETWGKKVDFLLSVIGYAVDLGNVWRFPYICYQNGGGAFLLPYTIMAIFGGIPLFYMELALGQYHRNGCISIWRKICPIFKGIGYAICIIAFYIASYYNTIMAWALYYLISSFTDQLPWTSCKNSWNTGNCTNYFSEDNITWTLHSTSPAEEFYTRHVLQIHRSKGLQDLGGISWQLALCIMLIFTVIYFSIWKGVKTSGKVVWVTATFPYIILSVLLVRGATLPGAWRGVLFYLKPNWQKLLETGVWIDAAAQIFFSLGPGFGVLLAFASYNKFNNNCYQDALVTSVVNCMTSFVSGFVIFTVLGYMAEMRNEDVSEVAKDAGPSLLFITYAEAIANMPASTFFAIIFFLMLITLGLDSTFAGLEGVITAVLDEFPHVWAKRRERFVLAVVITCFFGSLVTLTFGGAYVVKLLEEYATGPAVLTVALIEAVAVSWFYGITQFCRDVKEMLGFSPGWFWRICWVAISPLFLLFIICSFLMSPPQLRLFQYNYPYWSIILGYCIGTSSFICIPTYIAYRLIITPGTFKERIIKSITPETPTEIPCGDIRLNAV
T6 sequence (P02708 21-457): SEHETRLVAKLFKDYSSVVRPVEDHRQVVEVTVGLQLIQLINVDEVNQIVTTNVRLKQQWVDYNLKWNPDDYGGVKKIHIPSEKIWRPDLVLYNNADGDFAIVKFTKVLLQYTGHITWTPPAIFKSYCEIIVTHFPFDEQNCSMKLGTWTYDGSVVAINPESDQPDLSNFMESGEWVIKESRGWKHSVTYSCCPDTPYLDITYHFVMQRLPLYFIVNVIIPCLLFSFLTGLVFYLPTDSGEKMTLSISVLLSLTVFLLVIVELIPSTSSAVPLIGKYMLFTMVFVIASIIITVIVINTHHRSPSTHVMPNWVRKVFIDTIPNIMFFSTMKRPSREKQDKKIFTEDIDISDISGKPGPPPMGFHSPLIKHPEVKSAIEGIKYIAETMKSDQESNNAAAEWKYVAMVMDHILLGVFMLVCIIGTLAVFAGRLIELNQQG
T6 sequence (P11230 24-501 partner): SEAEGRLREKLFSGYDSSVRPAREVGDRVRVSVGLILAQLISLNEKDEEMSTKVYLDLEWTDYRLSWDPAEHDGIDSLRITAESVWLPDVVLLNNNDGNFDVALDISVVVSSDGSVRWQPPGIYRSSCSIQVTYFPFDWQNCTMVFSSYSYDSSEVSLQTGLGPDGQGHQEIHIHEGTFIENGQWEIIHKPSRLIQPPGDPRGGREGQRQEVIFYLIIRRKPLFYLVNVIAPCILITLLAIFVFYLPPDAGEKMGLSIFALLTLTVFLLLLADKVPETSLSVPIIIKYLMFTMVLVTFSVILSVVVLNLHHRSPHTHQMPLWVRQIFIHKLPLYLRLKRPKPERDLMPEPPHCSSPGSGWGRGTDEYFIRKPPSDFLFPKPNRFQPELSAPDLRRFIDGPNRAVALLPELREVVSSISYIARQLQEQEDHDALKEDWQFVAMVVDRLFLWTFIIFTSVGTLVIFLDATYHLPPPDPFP
T6 sequence (Q07001 22-517): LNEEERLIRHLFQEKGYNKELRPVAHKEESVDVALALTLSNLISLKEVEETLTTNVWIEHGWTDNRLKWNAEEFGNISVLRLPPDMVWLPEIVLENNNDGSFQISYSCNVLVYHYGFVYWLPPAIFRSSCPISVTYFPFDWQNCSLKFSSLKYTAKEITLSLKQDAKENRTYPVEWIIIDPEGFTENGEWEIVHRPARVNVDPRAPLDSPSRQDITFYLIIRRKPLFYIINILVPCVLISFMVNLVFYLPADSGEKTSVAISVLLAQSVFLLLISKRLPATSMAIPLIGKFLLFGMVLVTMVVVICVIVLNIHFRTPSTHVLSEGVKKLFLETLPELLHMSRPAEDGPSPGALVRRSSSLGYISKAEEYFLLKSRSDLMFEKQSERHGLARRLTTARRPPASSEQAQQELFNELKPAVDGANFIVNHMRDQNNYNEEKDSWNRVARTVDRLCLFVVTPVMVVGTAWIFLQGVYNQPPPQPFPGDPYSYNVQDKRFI
T6 sequence (P07510 23-517): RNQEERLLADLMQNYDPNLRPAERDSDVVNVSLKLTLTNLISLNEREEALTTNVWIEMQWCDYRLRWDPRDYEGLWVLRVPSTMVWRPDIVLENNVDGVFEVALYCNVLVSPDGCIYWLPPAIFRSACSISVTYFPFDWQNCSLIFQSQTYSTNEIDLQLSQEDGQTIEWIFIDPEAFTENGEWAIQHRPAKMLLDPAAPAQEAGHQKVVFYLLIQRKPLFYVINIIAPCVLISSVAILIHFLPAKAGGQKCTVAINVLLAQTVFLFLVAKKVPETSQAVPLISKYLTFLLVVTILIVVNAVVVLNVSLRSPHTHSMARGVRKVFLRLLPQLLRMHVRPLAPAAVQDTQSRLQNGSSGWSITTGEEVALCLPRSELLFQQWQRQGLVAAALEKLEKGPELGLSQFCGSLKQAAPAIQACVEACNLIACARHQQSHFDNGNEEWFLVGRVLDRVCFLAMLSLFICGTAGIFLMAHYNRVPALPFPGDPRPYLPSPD
T8 sequence (P23975 whole entry, species assumed): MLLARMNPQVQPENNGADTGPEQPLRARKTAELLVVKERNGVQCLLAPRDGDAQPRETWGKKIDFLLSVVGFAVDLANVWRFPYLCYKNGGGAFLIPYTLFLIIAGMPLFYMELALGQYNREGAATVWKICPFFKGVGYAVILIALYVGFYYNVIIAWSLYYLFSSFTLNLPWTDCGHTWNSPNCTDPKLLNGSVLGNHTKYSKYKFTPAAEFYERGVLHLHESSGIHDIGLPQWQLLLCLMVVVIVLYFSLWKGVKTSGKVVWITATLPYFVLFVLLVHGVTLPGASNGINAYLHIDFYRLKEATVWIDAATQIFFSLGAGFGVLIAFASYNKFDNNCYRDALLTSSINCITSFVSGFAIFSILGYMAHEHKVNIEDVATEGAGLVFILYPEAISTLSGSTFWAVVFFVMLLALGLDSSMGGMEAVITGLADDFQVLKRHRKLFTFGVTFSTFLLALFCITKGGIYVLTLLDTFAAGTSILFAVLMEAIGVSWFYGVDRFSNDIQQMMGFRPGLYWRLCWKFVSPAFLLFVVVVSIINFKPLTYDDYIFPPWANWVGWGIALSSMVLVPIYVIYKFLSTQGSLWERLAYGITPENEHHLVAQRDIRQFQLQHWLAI
T4 sequence (Q01959 whole entry, species assumed): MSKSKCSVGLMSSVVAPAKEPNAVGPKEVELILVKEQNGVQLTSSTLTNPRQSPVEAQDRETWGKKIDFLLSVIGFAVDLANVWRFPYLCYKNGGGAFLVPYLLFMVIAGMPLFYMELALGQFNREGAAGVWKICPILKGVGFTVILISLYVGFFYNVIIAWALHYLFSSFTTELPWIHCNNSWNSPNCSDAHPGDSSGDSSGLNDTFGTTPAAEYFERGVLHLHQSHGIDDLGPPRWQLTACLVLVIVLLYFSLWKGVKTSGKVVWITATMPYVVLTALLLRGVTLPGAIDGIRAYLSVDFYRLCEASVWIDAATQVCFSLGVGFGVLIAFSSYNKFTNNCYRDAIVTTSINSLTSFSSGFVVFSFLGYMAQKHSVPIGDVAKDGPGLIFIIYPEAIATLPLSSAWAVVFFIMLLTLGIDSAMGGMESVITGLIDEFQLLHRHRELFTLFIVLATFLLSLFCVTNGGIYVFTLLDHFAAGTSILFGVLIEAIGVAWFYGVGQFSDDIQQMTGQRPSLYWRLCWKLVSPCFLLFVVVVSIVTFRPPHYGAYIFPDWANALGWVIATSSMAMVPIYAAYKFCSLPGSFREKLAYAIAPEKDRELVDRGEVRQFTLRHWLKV

## O=S1(=O)c2ccc(F)cc2-c2ccc(N3CCN4CCC3CC4)cc21 [Compound 10a, 7-(1,4-Diazabicyclo[3.2.2]nonan-4-yl)-2-fluorodibenzo[b,d]thiophene 5,5-dioxide]
Human α3β4 nAChR
  Ki: 119 ± 29 nM
[1]
  binding to VMAT: no significant binding
Human α4β2 nAChR
  Ki: 517 ± 375 nM
Human 5-HT3 receptor; 0.1 μM concentration of test compound, [3H]GR65630 binding, read-out: 5-HT3 percentage of inhibition
  inhibition at 0.1 µM: 2%
Human 5-HT3 receptor; recombinant HEK293 cells, [3H]GR65630, estimated from seven concentrations (20 μM–5 nM), read-out: Affinity (Ki in nM) 5-HT3
  Ki: 440 nM
α7 nAChR [2]
  Ki: 0.0014 µM
[3]
  binding to DAT: no significant binding
Choline transporter
  binding to choline transporter: no significant binding
α1 nAChR
  binding to α1 nAChR: no significant binding
Human α7 nAChR; Ki hα3β4 divided by Ki hα7
  Selectivity (Ki ratio) α7/α3β4: 198
Human α7 nAChR; Ki hα4β2 divided by Ki hα7
  Selectivity (Ki ratio) α7/α4β2: 862
Human α7 nAChR; stably transfected SH-SY5Y cells, [3H]methyllycaconitine, read-out: Affinity (Ki in nM) hα7
  Ki: 0.6 ± 0.44 nM
[4]
  binding to NET: no significant binding
α3β4 nAChR
  Ki: 5 µM
[5]
  binding to SERT: no significant binding
Rat α6β2* nAChR
  Ki: 589 ± 217 nM
[6]; 6.2, 62 and 620 μg∙kg^−1 single i.v., either gender
  body weights, control vs treated groups: No statistically significant differences
[6]; 6.2, 62 and 620 μg∙kg^−1 single i.v., rats
  clinical observation: no notable clinical effects
[6]; single i.v., Day 2 or Day 15, rats
  pathological and histopathological parameters: did not result in changes
[6]; single intravenous injection, rats, observation 2 or 15 day
  no observed effect level (NOEL): 0.62 mg/kg

## CCN(CC)CCOc1ccc2c(c1)C(=O)c1cc(OCCN(CC)CC)ccc1-2 [tilorone]
α7 nAChR [7]
  Ki: 0.056 µM
